Entries after “also recorded” stand apart in the source; their conditions may differ.
Assays:
primary mouse podocytes = test: Cell relaxation and strain mapping with microbead-embedded hydrogels after CytoD; type: cell-based
Description: Fluorescent microbeads with a diameter of 0.2 μm (Invitrogen, F8801) were added to the hydrogel's pre-cross-linking solution with a 1:60 dilution ratio before the cross-linking step. After solidification, hydrogels were used for the strain mapping as reported earlier. Briefly, primary mouse podocytes were isolated as described above, seeded on the hydrogels, and allowed to spread for 24 hours. Next, the cells were transferred to a live-imaging chamber before adding CytoD to the culture medium (CytoD, Sigma-Aldrich, 22144-77-0; final concentration, 20 μM). In the final step, the culture medium was changed to 10% SDS to remove the attached cells completely. Cell relaxation and microbead movements were recorded immediately after adding CytoD or 10% SDS, and the strain field was calculated using a strain mapping algorithm that was developed in our previous study.
(§1) For counting and scoring cell phenotypes, imaged podocytes were divided into several categories, including (i) cells with SLSs centrally and in the periphery, (ii) cells with SLSs only in the periphery, (iii) cells with loose striated patterns of synaptopodin and myosin IIA instead of a mat of SLSs (i.e., widely spaced SLSs), and, lastly, (iv) cells without SLSs. For measuring cell length, the longest axis of the cell was determined (mostly along the micropattern direction), and the length was determined through ImageJ (v1.53e with Bio-Formats plugin).

[1] = system: podocytes from isolated mouse glomeruli; test: Glomerular culture and podocyte spreading on ECM-micropatterned hydrogels; type: cell-based; details: glomeruli cultured 2 days on micropatterned PAAm hydrogels
Description: To test which micropatterned ECM proteins best support podocytes, mouse glomeruli were isolated and cultured on hydrogels coated with Lam-521, collagen IV, or fibronectin. […] Furthermore, the PAAm hydrogel was coated with Lam-521 and micropatterned protein-free patches onto the substrate using a PDMS stamp that removed Lam-521, leaving an inverse of the previous Lam-521 micropatterns interdigitated with microscale patches of exposed PAAm.
Next, the PDMS stamp was cleaned by sonication (Branson) for 20 min and washed in 50% ethanol solution before drying under nitrogen flow followed by plasma cleaning for 2 min (Harrick Plasma). Last, the PDMS stamp micropattern areas were soaked in different ECM solutions [laminin 521 (50 μg/ml; Biolamina, LN521-05), fibronectin (Corning, 356008), or collagen IV (Corning, 354233) in phosphate-buffered saline (PBS)] and left to set for 1 hour at room temperature.
After air-drying the ECM proteins atop the PDMS stamp, the excess solution was removed, and the stamp was dried further using nitrogen flow. The freshly prepared hydroxyl-PAAm hydrogel was also dried out by treatment with nitrogen flow. […]

primary podocytes = test: Myosin II inhibition with blebbistatin: sarcomere-like structures (SLSs) in primary podocytes, immunostained for synaptopodin and myosin IIA; type: cell-based, mouse
Description: After spreading, cultured podocytes on the hydrogels or glass were fixed in 4% paraformaldehyde (Electron Microscopy Sciences, 15712) for 10 min at room temperature followed by washing with 1×PBS, three times for 6 min each, and then permeabilized using 0.05% Triton X-100 for 10 min at room temperature. Next, samples were blocked using 2% bovine serum albumin (Sigma-Aldrich, A7906) for 30 min at room temperature before applying the primary antibodies overnight at 4° C. Next, samples were washed with 1×PBS, three times for 6 min each before incubating them with the secondary antibodies in PBS for 1 hour at room temperature. Last, the samples were washed in 1×PBS, three times for 6 min, and prepared for mounting using Invitrogen Slow Fade mounting medium (Invitrogen, S36917). The cover glass holding the sample (hydrogel and cells) was bonded to a second cover glass using nail polish. The primary antibodies used were myosin IIA (BioLegend, 909801, rabbit anti-mouse), myosin IIA (Abnova, clone 3C7, mouse anti-human, NH2-terminus), synaptopodin (Synaptic Systems, 163004, guinea pig anti-mouse), laminin α5 [clone 4C7, mouse anti-human], fibronectin (Sigma-Aldrich, F3648, rabbit anti-human), collagen IV (SouthernBiotech, 1340-01, goat anti-human), nephrin (R&D Systems, AF3159, goat anti-mouse), and α-SMA (Invitrogen, 14-9760-82). Alexa Fluor 555 phalloidin (Thermo Fisher Scientific, A34055) was used for actin staining. For mouse myosin antibodies (clone 3C7), samples were antigen retrieved in TE (Tris-EDTA) buffer (pH 9.0) at 65° C. for 4 hours before the permeabilization step.
Blebbistatin (EMD Millipore, 203389-5) was used to inhibit the function of myosin II in the podocytes. […] After 2 hours of treatment, the samples were washed with PBS and immediately fixed and stained as mentioned above.
Sarcomeric structures were measured using ImageJ (v1.53e with Bio-Formats plugin). Briefly, fluorescence intensity maps were acquired by plotting the intensity along a line drawn perpendicular to the sarcomere structure. For the histogram, the spacing of each sarcomere is calculated by recording the peak location in the intensity map, and n for each group represents the total sarcomere number calculated in that group. For averaged sarcomeric spacing, the mean values were calculated for each intensity map (i.e., each stress fiber that is no less than 6 μm long), while n for each group represents the number of stress fibers analyzed in that group.
as §1

Molecule: C=C1[C@@H](C)[C@H]2[C@H](Cc3ccccc3)NC(=O)[C@]23[C@H](OC(C)=O)/C=C/[C@@](C)(O)C(=O)[C@@H](C)C/C=C/[C@H]3[C@@H]1O [CytoD, cytochalasin D]
- cell length before and after CytoD (primary mouse podocytes; 0.9 kPa substrates, 15 min CytoD): most cells elongated along their axes; also recorded: increases in cell length associated with 15 min of CytoD treatment were statistically significant
- cell length before and after CytoD (primary mouse podocytes; 6 kPa substrates, CytoD): Less, but still significant cell relaxation
- substrate strains associated with treatment (primary mouse podocytes; 6 kPa substrates, CytoD compared with subsequent SDS treatment): much larger than those associated with subsequent SDS treatment
- cell relaxation after actin disruption (primary mouse podocytes; reseeded primary podocytes, CytoD 20 μM, video recording): significant cell relaxation

Molecule: human laminin α5β2γ1 trimer [Lam-521]
- podocyte population of micropatterns [1]: podocytes populated micropatterns coated with Lam-521

Molecule: Cc1ccc2c(c1)C(=O)C1(O)CCN(c3ccccc3)C1=N2 (centres unmarked) [blebbistatin, Blebbistatin]
- SLS formation (primary podocytes; 10 nM blebbistatin, 0.2- or 0.9-kPa hydrogels (FIG. 4F)): SLSs failed to form; also recorded: caused the loss of SLSs with a lower concentration of blebbistatin
- SLS formation and sarcomeric spacing (primary podocytes; 10 nM blebbistatin, 6.0-kPa hydrogels or glass substrates (FIGS. 4F and G), listed as Blebb): myosin inhibition led to wider sarcomeric spacing
- effect on SLSs (primary podocytes; 2 μM blebbistatin (milder myosin inhibition)): insufficient to disrupt the SLSs at the cell periphery but sufficient to disrupt those in the centers of the cells
- effect on SLSs (primary podocytes; 10 μM blebbistatin, 2 hours, 6.0-kPa PAAm hydrogels and cover glass with Lam-521): caused aggregation of synaptopodin in the center of the cells and increased sarcomeric spacing in SLSs that persisted at the cell periphery
- effect on SLSs (primary podocytes; 100 μM blebbistatin, 2 hours, 6.0-kPa PAAm hydrogels and cover glass with Lam-521): nearly eliminated SLSs
- disruption or loss of SLSs, concentration not given (primary podocytes; podocytes on glass or patterned hydrogels (FIGS. 4D and E)): disrupted the sarcomeric structures of SLSs in a way that depended on the dose, substrate stiffness, and position; also recorded: caused a marked loss of SLSs

— patent US20240409902A1, “SYSTEMS AND METHODS FOR CULTURING PODOCYTES AND USES THEREOF” (Washington University, priority 2021, published 2024)
